Usually IC50 stands for the concentration that inhibits the measured activity by half. A low value points to inhibition by little substance. What is called Ki is the equilibrium dissociation constant of an inhibitor or competing ligand from its target. Higher therefore signals lower affinity.

Calls of active or inactive are those of the source. The calls are words filed in the database; no cut-off is given here.

Our source for the IC50, Ki and inhibition values is ChEMBL document CHEMBL2424595, “Substituted pyrrolo[2,3-d]pyrimidines as Cryptosporidium hominis thymidylate synthase inhibitors” (Bioorg Med Chem Lett, 2013).

Assay [1] in a line: Inhibition of Cryptosporidium hominis thymidylate synthase.
The next assay deals with Cryptosporidium hominis. Description: Inhibition of Cryptosporidium hominis DHFR.
Assay [2] has as its target Thymidylate synthase (Homo sapiens) (UniProt P04818). Description: Inhibition of human thymidylate synthase.

Chain of Thymidylate synthase (Homo sapiens) (P04818 2-313 limits assumed): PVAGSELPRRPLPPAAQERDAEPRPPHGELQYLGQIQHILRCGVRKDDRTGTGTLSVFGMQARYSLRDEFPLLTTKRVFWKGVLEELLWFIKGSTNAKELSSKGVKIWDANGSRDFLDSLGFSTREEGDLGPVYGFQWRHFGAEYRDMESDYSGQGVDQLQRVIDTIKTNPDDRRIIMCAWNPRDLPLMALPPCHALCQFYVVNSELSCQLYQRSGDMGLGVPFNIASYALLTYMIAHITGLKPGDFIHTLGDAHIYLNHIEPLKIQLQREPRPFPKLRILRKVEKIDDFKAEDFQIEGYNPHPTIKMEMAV

Consider `Nc1nc2[nH]cc(CCCCCc3ccc(C(=O)N[C@@H](CCC(=O)O)C(=O)O)cc3)c2c(=O)[nH]1`, for which, in assay [1], the IC50 came out at 31100 nM. This lies in the double-digit micromolar range.

For the compound `Nc1nc2[nH]cc(CCc3ccc(C(=O)N[C@@H](CCC(=O)O)C(=O)O)cc3)c2c(=O)[nH]1` [PEMETREXED], in assay [1], the IC50 stood at 2090 nM.

`Cc1[nH]c2nc(N)[nH]c(=O)c2c1Sc1ccc(C(=O)N[C@@H](CCC(=O)O)C(=O)O)c(Cl)c1` came in with a 50% inhibitory concentration (IC50) in assay [1] of 10 nM. The Ki in assay [1] was 8.83 nM. The inhibition entry (with Cryptosporidium hominis; in assay [2]) was “Active” in each case.

The compound `Nc1nc2[nH]cc(Cc3ccc(C(=O)N[C@@H](CCC(=O)O)C(=O)O)cc3)c2c(=O)[nH]1` gave an IC50 in assay [1] of 380 nM.

`Nc1nc2[nH]cc(Cc3ccc(C(=O)N[C@@H](CCC(=O)O)C(=O)O)s3)c2c(=O)[nH]1`: in assay [1], the IC50 came to 30 nM. For the same compound, the inhibition result (with Cryptosporidium hominis; in assay [2]) was “Active” each time.

In assay [1], `Nc1nc2[nH]cc(CCCc3ccc(C(=O)N[C@@H](CCC(=O)O)C(=O)O)cc3)c2c(=O)[nH]1` showed a concentration for half-maximal inhibition (IC50) of 2440 nM.
